The source of these data is article PMC6079014, “Calcium is an essential cofactor for metal efflux by the ferroportin transporter family” (Nature Communications, 2018).

Assay [1] concerns the target wild type BbFpn (Bdellovibrio bacteriovorus, UniProt Q6MLJ0). Briefly: biochemical. The class given is binding, Bdellovibrio bacteriovorous.
Assay [2] addresses T1, human Fpn (Homo sapiens, UniProt Q9NP59).
T1 construct: expressed in transfected cells; host or cells: Xenopus laevis oocytes injected with Fpn RNA
T1 sequence (Q9NP59 1-571): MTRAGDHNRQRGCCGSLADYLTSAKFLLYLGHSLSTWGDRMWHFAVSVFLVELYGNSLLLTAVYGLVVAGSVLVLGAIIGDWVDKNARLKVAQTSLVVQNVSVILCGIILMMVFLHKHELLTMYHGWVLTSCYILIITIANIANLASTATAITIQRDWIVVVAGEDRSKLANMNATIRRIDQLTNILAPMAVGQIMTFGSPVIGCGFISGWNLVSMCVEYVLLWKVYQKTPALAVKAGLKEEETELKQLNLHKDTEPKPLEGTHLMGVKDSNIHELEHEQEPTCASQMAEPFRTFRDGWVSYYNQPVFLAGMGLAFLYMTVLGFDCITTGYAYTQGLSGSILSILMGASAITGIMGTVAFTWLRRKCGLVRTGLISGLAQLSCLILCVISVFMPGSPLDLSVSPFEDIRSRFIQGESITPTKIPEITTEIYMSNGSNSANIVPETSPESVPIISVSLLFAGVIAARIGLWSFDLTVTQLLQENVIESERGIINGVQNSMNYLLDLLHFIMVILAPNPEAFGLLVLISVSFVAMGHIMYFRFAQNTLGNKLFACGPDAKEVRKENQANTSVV
Kind of assay: Radiotracer metal efflux assay in Xenopus oocytes expressing human Fpn. The class given is cell-based. The settings on record: for Ability of other alkaline-earth metals to substitute for Ca2+ in activating 55Fe efflux: Ca2+-free media, 2 mM Sr or Ba plus 1 mM Mg2+, or 3 mM Mg2+; for Effect on 55Fe efflux of pharmacologically raising the cytosolic Ca2+ concentration: 1 µM ionomycin (IMN) or 2 µM thapsigargin (THG), media with 0.2% DMSO. The protocol: We performed laparotomy and ovariectomy on adult female Xenopus laevis frogs (Nasco, Fort Atkinson, WI) under 2-aminoethylbenzoate methanesulfonate anesthesia (0.2%, by immersion, to effect) following a protocol approved by the University of Cincinnati Institutional Animal Care and Use Committee. Ovarian tissue was isolated and treated for 3 h with […] collagenase A (Roche Diagnostics Corp., Indianapolis, IN) in calcium-free-modified Barths’ medium (MBM) of composition 88 mM NaCl, 1 mM KCl, 2.4 mM NaHCO3, 1.57 mM MgSO4, 0.66 mM NaNO3, 10 mM 4-(2-hydroxyethyl)-1-piperazineethanesulfonic acid (HEPES), buffered to pH 7.5 by using 2-amino-2-hydroxymethyl-propane-1,3-diol (Tris base). We isolated defolliculate stage V–VI oocytes stored at 17 °C in MBM of composition 88 mM NaCl, 1 mM KCl, 2.4 mM NaHCO3, 0.82 MgSO4, 0.75 mM CaCl2, 0.66 mM NaNO3, 10 mM HEPES, buffered to pH 7.5 by using Tris base, with 50 mg l^−1 ciprofloxacin. We expressed in Xenopus oocytes the 1A transcript form of human Fpn fused at its C-terminus with the enhanced green fluorescent protein (GFP) as described. Oocytes were injected with ∼50 ng of Fpn RNA and incubated for 4–6 days before being used in functional assays. Control oocytes were noninjected.
We measured metal efflux from oocytes expressing Fpn by using a radiotracer assay. Radiochemicals ^55Fe, ^45Ca, ^57Co, ^65Zn were obtained from Perkin-Elmer Life Science Products (Boston, MA) and ^63Ni from the National Isotope Development Center (Oak Ridge, TN). We used ^55Fe (added as FeCl3) at final specific activity 0.4–2.0 GBq mg^−1, ^45Ca (added as CaCl2) at final specific activity 0.5–0.9 GBq mg^−1, ^57Co (added as CoCl2) at final specific activity 1.6 GBq mg^−1, ^65Zn (added as ZnCl2) at final specific activity 0.2 GBq mg^−1, and ^63Ni (added as NiCl2) at final specific activity 0.6 GBq mg^−1. Oocytes were injected with 50 nl of 5 μM metal radionuclide (*M) in vehicle of composition 250 mM KCl, 5 mM nitrilotriacetic acid, trisodium salt, buffered to pH 7.0 with ∼4 mM 2-(N-morpholino)ethanesulfonic acid (MES) (GFS Chemicals, Columbus, OH). After injection, oocytes were briefly stored in ice-cold MBM (for 1–5 min) prior to the start of the efflux assay.
To initiate the efflux assay, we placed oocytes in standard efflux medium of composition 100 mM NaCl, 1 mM KCl, 2 mM CaCl2, 1 mM MgCl2, 0.5 mM bathophenanthroline disulfonic acid (BPS), 1 mM nitrilotriacetic acid (NTA) trisodium salt, 50 μg/ml apotransferrin (ApoTf) (R&D Systems Inc., Minneapolis, MN), buffered with 0–5 mM MES, and 0–5 mM N′,N′-diethylpiperazine to obtain pH 7.5, with the following exceptions. To prepare Ca^2+-free medium, we replaced 2 mM CaCl2 with 4 mM NaCl and added 1 mM ethylene glycol-bis(2-aminoethyl ether)-N,N,N′,N′-tetraacetic acid (EGTA). To prepare Mg^2+-free medium, we replaced […] MgCl2 with 4 mM NaCl and added 1 mM ethylenediaminetetraacetic acid (EDTA). To measure ^55Fe efflux as a function of extracellular [Ca^2+] over the range 0.1–20 mM Ca^2+ (Figs. 1c, 6b), we adjusted [NaCl] and [CaCl2] on a 2:1 molar basis without the addition of EGTA. Oocytes were then transferred individually in 200 µl of medium to flat-bottomed wells of a 96-well plate and incubated 30 min—within the linear phase of metal efflux[10] —at 23–27 °C with gentle rocking. To terminate efflux, we removed 150 µl of medium (0.75 × [N0–Nt]) from each well for liquid-scintillation counting in Ultima Gold liquid-scintillation cocktail (Perkin-Elmer, Waltham, MA). The corresponding oocytes were rinsed twice in ice-cold medium (without BPS), solubilized with 5% (w/v) sodium dodecyl sulfate, and counted (Nt). We fit our data for oocyte radiotracer content (N) over time (Eq. (1)) and obtained the first-order rate constant (k) for metal radionuclide (*M) efflux for individual oocytes. N0 and Nt are counts per min (cpm) in the oocyte at time = 0 and time = t, respectively.1 Nt=N0⋅exp(-k⋅t) […]

For assay [3], the target named is BbFpn Q84E (Bdellovibrio bacteriovorus, UniProt Q6MLJ0, Q84E). Briefly: Isothermal titration calorimetry, Q84E BbFpn. The class given is binding, Bdellovibrio bacteriovorous.
Assay [4] concerns the target BbFpn D24A (Bdellovibrio bacteriovorus, UniProt Q6MLJ0, D24A). Briefly: Isothermal titration calorimetry, D24A BbFpn. Format: binding, Bdellovibrio bacteriovorous. A general note: In ITC the heat of successive injections is recorded.
The target in assay [5] is BbFpn N196A (Bdellovibrio bacteriovorus, UniProt Q6MLJ0, N196A). Briefly: Isothermal titration calorimetry, N196A BbFpn. The class given is binding, Bdellovibrio bacteriovorous.
Assay [6] deals with BbFpn E203A (Bdellovibrio bacteriovorus, UniProt Q6MLJ0, E203A). Briefly: Isothermal titration calorimetry, E203A BbFpn. Format: binding, Bdellovibrio bacteriovorous.
[7] abbreviates: Supplementary Figs. 5 and 9, one experiment.

Where two headings read alike, the source gives them in different places.

wild type BbFpn, sequence (Q6MLJ0 whole entry): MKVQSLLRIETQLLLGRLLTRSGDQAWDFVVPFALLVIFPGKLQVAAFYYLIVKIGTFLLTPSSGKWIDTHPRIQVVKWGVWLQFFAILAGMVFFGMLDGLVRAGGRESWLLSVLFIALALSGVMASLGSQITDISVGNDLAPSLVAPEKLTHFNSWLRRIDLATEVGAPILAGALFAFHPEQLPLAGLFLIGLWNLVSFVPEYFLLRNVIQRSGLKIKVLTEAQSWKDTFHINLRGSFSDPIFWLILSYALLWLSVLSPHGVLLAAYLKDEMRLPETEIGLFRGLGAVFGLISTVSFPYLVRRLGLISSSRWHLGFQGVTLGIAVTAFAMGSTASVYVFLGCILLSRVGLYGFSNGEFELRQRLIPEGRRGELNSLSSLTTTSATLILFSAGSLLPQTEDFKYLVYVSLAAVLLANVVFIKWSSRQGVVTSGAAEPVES
BbFpn E203A, sequence (Q6MLJ0 whole entry E203A): as the sequence (Q6MLJ0 whole entry) above, with E203A counted along it
BbFpn N196A, sequence (Q6MLJ0 whole entry N196A): as the sequence (Q6MLJ0 whole entry) above, with N196A counted along it
BbFpn Q84E, sequence (Q6MLJ0 whole entry Q84E): as the sequence (Q6MLJ0 whole entry) above, with Q84E counted along it
BbFpn D24A, sequence (Q6MLJ0 whole entry D24A): as the sequence (Q6MLJ0 whole entry) above, with D24A counted along it

Take `[K+]` [K^+]: in assay [1], the “Binding to wild type BbFpn by ITC (in words)” value is “no observable binding”.
With `[Mg+2]` [Mg^2+, magnesium], the “Ability of other alkaline-earth metals to substitute for Ca2+ in activating 55Fe efflux” value (“Ability of other alkaline-earth metals” below) in assay [2] was “could not”. For the same compound, the “Binding to wild type BbFpn by ITC (in words)” value in assay [1] (same experimental conditions as for Ca2+) is listed as “no observable binding”.
For `[Na+]` [Na^+], the “Effect of extracellular Na+ replacement with choline on Fpn-mediated 55Fe efflux” value in assay [2] (presence or absence of 100 mM extracellular Na+) was “unaffected”.
In general, Kd refers to the equilibrium constant for the complex coming apart. As to `[Sr+2]` [Sr^2+, strontium], the “Binding to Q84E BbFpn by ITC (in words)” value in assay [3] was “no Ca^2+ or Sr^2+ binding”. Further, the “Binding to D24A BbFpn by ITC (in words)” value in assay [4] is recorded as “complete loss”. In addition, the “Binding to N196A BbFpn by ITC (in words)” value in assay [5] was “complete loss”. The “Binding to E203A BbFpn by ITC (in words)” value in assay [6] is “complete loss”. The “Ability of other alkaline-earth metals” value in assay [2] is given as “could partially substitute”. Also, the Kd in assay [1] (20 °C, 20 mM Tris pH 8, 50 mM NaCl, 0.004% LMNG, read-out: Kd (ITC)) stood at 4.6e-05 ± 3.3e-06 M. In addition, in assay [1] (setting [7]), the “-TΔS, ITC” value is listed as -19.2 kcal/mol; the “N (sites), ITC” value is given as 0.478 ± 6.1e-2; the “ΔG, ITC” value is -5.83 kcal/mol; the “ΔH, ITC” value is listed as 13.4 ± 1.90 kcal/mol. In assay [1] (Supplementary Figs. 5 and 9, one experiment, read-out: KD (M), ITC), the Kd was 4.57e-05 M.
As for `[Ba+2]` [barium], the “Ability of other alkaline-earth metals” value in assay [2] was “could not”.
As for `C[C@H](CCC(=O)O)C[C@H](C)C[C@H](C)C(=O)/C=C(\O)[C@H](C)C[C@H](C)C/C=C/[C@@H](C)[C@@H](O)[C@@H](C)[C@@H](O)C[C@@H]1CC[C@@](C)([C@H]2CC[C@@](C)([C@@H](C)O)O2)O1` [ionomycin, reference compound], the “Effect on 55Fe efflux of pharmacologically raising the cytosolic Ca2+ concentration” value in assay [2] is recorded as “no effect”.
In the case of `C/C=C(/C)C(=O)O[C@H]1C(C)=C2[C@H]([C@@H]1OC(=O)CCCCCCC)[C@@](C)(OC(C)=O)C[C@H](OC(=O)CCC)[C@@]1(O)[C@H]2OC(=O)[C@@]1(C)O` [thapsigargin, reference compound], the “Effect on 55Fe efflux of pharmacologically raising the cytosolic Ca2+ concentration” value in assay [2] is given as “no effect”.
